Literature values in patent publication US10980740B2, “Tranexamic acid spray for knee arthroplasty” (SHILPA MEDICARE LIMITED, priority 2017, dated 2021).
Where two headings read alike, the source gives them in different places.

Legend:
[1] = system: patients undergoing elective total knee arthroplasty
[2] = molecular target: plasminogen (Homo sapiens, UniProt P00747)
[3] = system: Total knee arthroplasty patients

Sequence of plasminogen (P00747 20-810 limits assumed, species assumed): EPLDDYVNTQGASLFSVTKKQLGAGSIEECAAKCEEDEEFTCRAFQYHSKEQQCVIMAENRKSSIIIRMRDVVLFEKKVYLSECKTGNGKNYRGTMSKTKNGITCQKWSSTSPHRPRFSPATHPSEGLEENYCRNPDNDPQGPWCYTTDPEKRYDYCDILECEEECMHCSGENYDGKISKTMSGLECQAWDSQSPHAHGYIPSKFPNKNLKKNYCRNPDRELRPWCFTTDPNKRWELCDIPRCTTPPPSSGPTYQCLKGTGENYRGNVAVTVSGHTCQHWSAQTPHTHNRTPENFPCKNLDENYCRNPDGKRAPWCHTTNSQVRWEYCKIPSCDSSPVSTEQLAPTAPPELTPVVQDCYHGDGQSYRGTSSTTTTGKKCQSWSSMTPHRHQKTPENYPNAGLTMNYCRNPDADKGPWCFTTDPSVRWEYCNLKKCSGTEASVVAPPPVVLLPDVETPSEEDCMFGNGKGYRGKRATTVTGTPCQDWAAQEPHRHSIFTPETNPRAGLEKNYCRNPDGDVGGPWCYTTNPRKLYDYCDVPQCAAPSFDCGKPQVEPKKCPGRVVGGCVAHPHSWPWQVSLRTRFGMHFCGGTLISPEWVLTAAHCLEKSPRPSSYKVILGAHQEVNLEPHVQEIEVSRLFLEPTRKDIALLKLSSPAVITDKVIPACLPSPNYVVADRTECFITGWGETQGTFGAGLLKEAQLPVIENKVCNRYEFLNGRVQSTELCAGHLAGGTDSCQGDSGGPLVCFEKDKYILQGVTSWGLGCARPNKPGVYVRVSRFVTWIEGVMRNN

SMILES: NC[C@H]1CC[C@H](C(=O)O)CC1 [Tranexamic acid]
- reducing calculated blood loss and transfusion rates ([1]; intravenous): effective
- reducing calculated blood loss and transfusion rates ([1]; topical, 3 gm diluted in 45 mL normal saline, applied after cementation): effective
- potency in vitro relative to aminocaproic acid [2]: about 10 times
- systemic side effects ([3]; topical tranexamic acid): reduces the systemic side effects
- reduction of peri- and post-operative blood loss, topical compared with intravenous ([3]; total knee arthroplasty, topical 2 gm in intra-articular drain, clamped one hour): equally efficacious
